The results in this text go back to patent EP4755881A1 (Wuhan Createrna Science and Technology Co., Ltd., priority 2023, dated 2025).

Read-outs that look alike come from different tables or passages of the source.

Data set [1] addresses hLPAR1 (human lysophosphatidic acid receptor 1, Accession No.: NM_001401.4) (Homo sapiens, UniProt Q92633). The data set can be described thus: cell-based. The conditions noted are these: FLIPR method, CHO-K1 cells overexpressing hLPAR1. In a few lines:
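Antagonist mode in CHO-K1 cells stably expressing hLPAR1, Fluo-4 loaded; compound preincubated 30 min at room temperature before 1 µM oleoyl-LPA (final) challenge.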

Data set [2] in a line: Pharmacokinetic study in rats (oral gavage and tail vein injection, plasma LC-MS/MS). The conditions noted are these: rat; for Cmax: read-out: Cmax. The class given is in vivo. On the procedure: Male SPF-grade SD rats (Beijing Vital River Laboratory Animal Technology Co., Ltd.) with a body weight range of 200 to 250 g were used. After acclimatization, the rats were administered a clear solution of the compound of the present disclosure via oral gavage (Po, fasted overnight before administration with free access to water, food returned 4 hours after administration) and tail vein injection (Iv, free access to food and water throughout the administration). Blood samples were collected from the orbital venous plexus/jugular vein of rats at specified time points after administration (blood collection time points for the PO group: 0.167, 0.5, 1, 2, 4, 6, 8, and 24 h; for the IV group: 0.033, 0.167, 1, 2, 4, 6, 8, and 24 h). The concentration of compounds in plasma was detected by LC-MS/MS (AB SCIEX Qtrap4500). Data were analyzed using WinNonlin (version 5.2.1 Pharsight, Mountain View, CA) with a non-compartmental model to obtain PK parameters (including Cmax, C0, Tmax, AUClast, AUCinf, T1/2, etc.).
Table 3: Results of in vivo pharmacokinetic studies of compounds of the present disclosure in rats
The vehicle for the Po group compound was 5% DMSO + 5% ethanol + 60% PEG400 + 30% normal saline; the vehicle for the Iv group compound was 10% ethanol + 20% pure water + 70% PEG400 solution.

Setting [3] is: Table 1, read-out: LPAR1 inhibitory activity IC50.
Setting [4] is: LPAR1 inhibitory activity IC50, Table 1.

Chain of hLPAR1 (human lysophosphatidic acid receptor 1, Accession No.: NM_001401.4) (Q92633 whole entry): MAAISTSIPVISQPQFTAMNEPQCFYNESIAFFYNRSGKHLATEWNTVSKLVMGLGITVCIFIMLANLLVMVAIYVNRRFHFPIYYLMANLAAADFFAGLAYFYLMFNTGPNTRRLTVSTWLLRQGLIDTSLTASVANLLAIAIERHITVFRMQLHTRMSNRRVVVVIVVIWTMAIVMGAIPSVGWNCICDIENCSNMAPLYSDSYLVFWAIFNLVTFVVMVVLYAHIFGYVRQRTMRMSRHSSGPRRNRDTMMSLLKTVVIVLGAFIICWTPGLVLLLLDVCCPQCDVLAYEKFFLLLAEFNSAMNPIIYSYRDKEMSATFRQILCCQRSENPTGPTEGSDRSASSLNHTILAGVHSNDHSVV

As to `CCC(F)(F)CC(C)OC(=O)Nc1c(-c2ccc(C#CC3CCC3C(=O)O)c(C)n2)nnn1C` (single isomer, unassigned) [245-B], the IC50 (commonly the midpoint of a concentration-inhibition curve) in data set [1] (setting [3]) turned out to be 0.0346 µM. For the same molecule, in data set [2] (SD rats, Iv, 1 mg/kg), the AUC(0-t) – broadly, exposure summed from dosing to a finite time, without extrapolation to infinity – is 3000 to 5000 ng·h/mL; the half-life (as a rule, how long it takes for the measured level to halve) was 7.22 h; the Cmax – broadly, the peak of the concentration-time curve – fell in the range of 800 to 5000 ng/mL. Besides, in data set [2] (SD rats, Po, 1 mg/kg), the AUC(0-t) fell in the range of 3000 to 5000 ng·h/mL, the half-life was 6.66 h and the Cmax lay within 200 to 800 ng/mL.
`Cc1nc(-c2nnn(C)c2NC(=O)O[C@H](C)CC(C)(F)F)ccc1C#C[C@H]1CCC[C@@H]1C(=O)O` (single isomer, unassigned) [246-B] registered an IC50 in data set [1] (setting [4]) of 0.0259 µM. In data set [2] (SD rats, Iv, 1 mg/kg), the AUC(0-t) was 5000 to 10000 ng·h/mL, the half-life is 7.01 h and the Cmax fell in the range of 800 to 5000 ng/mL. Moreover, in data set [2] (SD rats, Po, 1 mg/kg), the AUC(0-t) lay in the range of 3000 to 5000 ng·h/mL, the half-life was 4.4 h and the Cmax was in the range of 200 to 800 ng/mL.
For `Cc1nc(-c2nnn(C)c2NC(=O)OC(C)CC2CC2)ccc1C#CC1CCC1C(=O)O` (single isomer, unassigned) [248-A], in data set [1] (setting [3]), the IC50 stood at 0.0181 µM. In data set [2] (SD rats, Iv, 1 mg/kg), the AUC(0-t) was in the range of 3000 to 5000 ng·h/mL, the half-life is 7.72 h and the peak concentration (Cmax) was 800 to 5000 ng/mL. In data set [2] (SD rats, Po, 1 mg/kg), the AUC(0-t) was 5000 to 10000 ng·h/mL, the half-life was 5.33 h and the Cmax lay within 200 to 800 ng/mL.
For the molecule `CC(OC(=O)Nc1c(-c2ccc(C#CC3(CC(=O)O)CC3)c(F)n2)nnn1C)C12CC(C1)C2` (centres unmarked) [237-A, 2-(1-((6-(5-(((1-(bicyclo[1.1.1]pentan-1-yl)ethoxy)carbonyl)amino)-1-methyl-1H-1,2,3-triazol-4-yl)-2-fluoropyridin-3-yl)ethynyl)cyclopropyl)acetic acid], the IC50 in data set [1] (setting [3]) worked out at 0.0344 µM. Moreover, the half-life in data set [2] (male, SD, iv, 1 mg/kg) is 5.19 h; in data set [2] (male, SD, po, 1 mg/kg), 4 h. The AUC(0-t) lay in the range of 5000 to 10000 ng·h/mL in data set [2] (male, SD rats, Iv, 1 mg/kg) and 5000 to 10000 ng·h/mL in data set [2] (male, SD rats, Po, 1 mg/kg). Moreover, the highest concentration (Cmax) in data set [2] (male, SD rats, Iv, 1 mg/kg) lay within 5000 to 8000 ng/mL; in data set [2] (male, SD rats, Po, 1 mg/kg), 800 to 5000 ng/mL.
For the molecule `C[C@H](C1CC1)N(C)C(=O)OCc1c(-c2ccc(C#CC3(CC(=O)O)CC3)cn2)nnn1C` [compound 002, (R)-2-(1-((6-(5-((((1-cyclopropylethyl)(methyl)carbamoyl)oxy)methyl)-1-methyl-1H-1,2,3-triazol-4-yl)pyridin-3-yl)ethynyl)cyclopropyl)acetic acid], in data set [1] (setting [3]), the IC50 amounted to 0.0834 µM. In addition, the half-life in data set [2] (male, SD, iv, 1 mg/kg) was 7.18 h; in data set [2] (male, SD, po, 3 mg/kg), 3.4 h. Further, the AUC(0-t) in data set [2] (male, SD rats, Iv, 1 mg/kg) is 1200 to 3000 ng·h/mL; in data set [2] (male, SD rats, Po, 3 mg/kg), 3000 to 5000 ng·h/mL. The Cmax in data set [2] (male, SD rats, Iv, 1 mg/kg) was in the range of 5000 to 8000 ng/mL; in data set [2] (male, SD rats, Po, 3 mg/kg) it was 800 to 5000 ng/mL.
In data set [1] (setting [4]), `Cc1nc(-c2nnn(C)c2NC(=O)O[C@H](C)c2ccccc2Cl)ccc1C#C[C@H]1CC[C@@H]1C(=O)O` [compound 033] had an IC50 of 0.0033 µM. In addition, in data set [2] (SD rats, Iv, 1 mg/kg), the exposure AUC(0-t) was in the range of 3000 to 5000 ng·h/mL, the half-life was 5.93 h and the Cmax was 800 to 5000 ng/mL. Moreover, in data set [2] (SD rats, Po, 1 mg/kg), the AUC(0-t) lay within 3000 to 5000 ng·h/mL, the half-life was 5.31 h and the Cmax lay in the range of 800 to 5000 ng/mL.
`CCCCN(C)C(=O)OCc1c(-c2ccc(C#CC3(CC(=O)O)CC3)c(F)n2)nnn1C` [compound 105] yielded an IC50 in data set [1] (setting [4]) of 0.0562 µM. Besides, in data set [2] (SD rats, Iv, 1 mg/kg), the AUC(0-t) fell in the range of 1200 to 3000 ng·h/mL, the half-life is 4.72 h and the Cmax is 800 to 5000 ng/mL. For the same molecule, in data set [2] (SD rats, Po, 1 mg/kg), the AUC(0-t) lay in the range of 1200 to 3000 ng·h/mL, the half-life was 6.6 h and the Cmax fell in the range of 200 to 800 ng/mL.
In turn, `Cc1nc(-c2nnn(C)c2Nc2cncc(OC(C)C)n2)ccc1C#CC1(CC(=O)O)CC1` [compound 125, 2-(1-((6-(5-((6-isopropoxypyrazin-2-yl)amino)-1-methyl-1/7-1,2,3-triazol-4-yl)-2-methylpyridin-3-yl)ethynyl)cyclopropyl)acetic acid] yielded an IC50 in data set [1] (setting [4]) of 0.0436 µM. Also, in data set [2] (SD rats, Iv, 1 mg/kg), the AUC(0-t) was 1200 to 3000 ng·h/mL, the half-life is 4.65 h and the Cmax fell in the range of 800 to 5000 ng/mL.
